From ChEMBL document CHEMBL3045009, “Synthesis and Biological Activity of the Functional Derivatives of 3- and 4-(Dimethyl-aminomethyl)-1,2-dithiolanes” (1992)

Columns and labels:
Assay type in all cases: functional
[1] = system: Chilo suppressalis; assay: Insecticidal activity against Chilo suppressalis (rice stem borer) assessed as mortality compound administered as topical application
[2] = system: Tetranychus urticae; assay: Acaricidal activity against Tetranychus urticae (two-spotted spider mite) assessed as mortality at 500 ppm; settings: for mortality at 500 ppm: Tetranychus urticae
[3] = system: Chilo suppressalis; assay: Insecticidal activity against Chilo suppressalis (rice stem borer) assessed as mortality at 50 ug/g administered as topical application
[4] = system: Spodoptera litura; assay: Insecticidal activity against Spodoptera litura assessed as mortality at 500 ppm; settings: for mortality at 500 ppm: Spodoptera litura
[5] = system: Nilaparvata lugens; assay: Insecticidal activity against Nilaparvata lugens (brown planthopper) assessed as mortality at 50 ppm; settings: for mortality at 50 ppm: Nilaparvata lugens
[6] = system: Culex pipiens molestus; assay: Insecticidal activity against Culex pipiens molestus assessed as mortality at 5 ppm; settings: for mortality at 5 ppm: Culex pipiens

| SMILES | LD50 [1] [mg/kg] | mortality at 500 ppm [2] [%] | mortality [3] [%] | mortality at 500 ppm [4] [%] | mortality at 50 ppm [5] [%] | mortality at 5 ppm [6] [%] | mortality [4] [%] | mortality [6] [%] | mortality [2] [%] | mortality [5] [%] |
| --- | --- | --- | --- | --- | --- | --- | --- | --- | --- | --- |
| CN(C)C1CSSC1.O=C(O)C(=O)O [NEREISTOXIN HYDROGEN OXALATE] | 1.7 | 50 | 100 | 30 | 100 | 100 | – | – | – | – |
| CN(C)CC1CSSSC1.O=C(O)C(=O)O | 7.5 | 100 | 100 | 100 | 100 | 100 | – | – | – | – |
| CN(C)C[C@@H]1CCSC(C(=O)c2ccccc2)(C(=O)c2ccccc2)S1.O.O=C(O)C(=O)O | 7.5 | 100 | 100 | – | 100 | – | 0 | 65 | – | – |
| CN(C)CC1CSSC1.O=C(O)C(=O)O | 11.4 | 100 | 100 | 90 | 100 | 100 | – | – | – | – |
| CCC(=O)SCCC(CN(C)C)SC(=O)CC.O=C(O)C(=O)O (configuration not stated) | – | 80 | 100 | 40 | 70 | 20 | – | – | – | – |
| CN(C)C(CSC(N)=O)CSC(N)=O.Cl [CARTAP HYDROCHLORIDE] | 2.3 | 37 | 100 | 35 | 100 | 100 | – | – | – | – |
| CN(C)CC1CSC(C(=O)c2ccccc2)(C(=O)c2ccccc2)SC1.O=C(O)C(=O)O | – | 100 | 100 | 0 | 100 | 100 | – | – | – | – |
| CN(C)C(CSS(=O)(=O)c1ccccc1)CSS(=O)(=O)c1ccccc1 [BENSULTAP] | 3.7 | – | – | – | – | – | – | – | – | – |
| CSCCC(CN(C)C)SC (configuration not stated) | – | – | 0 | – | – | – | 0 | 0 | 20 | 10 |
| CCC(=O)SCC(CSC(=O)CC)CN(C)C.O=C(O)C(=O)O | 6.6 | 100 | 100 | – | 70 | – | 0 | 75 | – | – |
| CN(C)CC(CCSC(=O)c1ccccc1)SC(=O)c1ccccc1.O.O=C(O)C(=O)O (configuration not stated) | – | – | 100 | – | – | – | 0 | 100 | 100 | 100 |
| CSCCC(CN(C)C)SC.O=C(O)C(=O)O (configuration not stated) | – | – | 0 | 0 | – | 0 | – | – | 100 | 30 |
| CN(C)CC(CSC(=O)c1ccccc1)CSC(=O)c1ccccc1 | 4 | 100 | 100 | 10 | 100 | 100 | – | – | – | – |
| CNC(=O)SCCC(CN(C)C)SC(=O)NC (configuration not stated) | – | 30 | 100 | 0 | 100 | 5 | – | – | – | – |
| CN(C)C[C@H]1CS[C@@](C#N)(c2ccc(Cl)cc2)SC1 | – | 90 | 100 | 0 | 100 | 100 | – | – | – | – |
| CN(C)CC(CSC(N)=O)CSC(N)=O.Cl.O | 12.6 | 80 | 100 | 100 | 100 | 100 | – | – | – | – |
| CN(C)CC(CS)CS.O=C(O)C(=O)O | – | 100 | 100 | 30 | 100 | 100 | – | – | – | – |

| SMILES | LD50 [1] [mg/kg] | mortality at 500 ppm [2] [%] | mortality [3] [%] | mortality at 500 ppm [4] [%] | mortality at 50 ppm [5] [%] | mortality at 5 ppm [6] [%] | mortality [4] [%] | mortality [6] [%] | mortality [2] [%] | mortality [5] [%] |
| --- | --- | --- | --- | --- | --- | --- | --- | --- | --- | --- |
| CCOC(=O)C1SCC(CN(C)C)CS1 (mixture of isomers) | – | 20 | 0 | 0 | 90 | 0 | – | – | – | – |
| CC(=O)SCC(CSC(C)=O)CN(C)C.O=C(O)C(=O)O | 32.5 | 100 | 100 | 70 | 100 | 100 | – | – | – | – |
| CN(C)CC(CSC(=O)N(C)C)CSC(=O)N(C)C.O=C(O)C(=O)O | – | 100 | 20 | 0 | 30 | 0 | – | – | – | – |
| CNC(=O)SCC(CSC(=O)NC)CN(C)C | 27.1 | 90 | 100 | 20 | 30 | 100 | – | – | – | – |
| CC(C)NC(=S)SCC(CSC(=S)NC(C)C)CN(C)C | 12.7 | 80 | 100 | 50 | 100 | 100 | – | – | – | – |
| CCOP(=O)(OCC)[C@]1(C#N)SC[C@@H](CN(C)C)CS1.O=C(O)C(=O)O | – | 100 | 100 | 70 | 100 | 100 | – | – | – | – |
| CCOP(=O)(OCC)[C@]1(C#N)SC[C@H](CN(C)C)CS1.O=C(O)C(=O)O | – | 100 | 60 | 10 | 80 | 100 | – | – | – | – |
| CCOC(=O)CSCC(CSCC(=O)OCC)CN(C)C.O=C(O)C(=O)O | – | 80 | 0 | 0 | 40 | 0 | – | – | – | – |
| CN(C)CC(CCSC(=O)c1ccccc1)SC(=O)c1ccccc1.Cl (configuration not stated) | – | 100 | 100 | – | 100 | 95 | 50 | – | – | – |
| CCOC(=O)[C@H]1SC[C@H](CN(C)C)CS1.O=C(O)C(=O)O | – | 100 | 0 | 0 | 30 | 5 | – | – | – | – |
| CC(=O)SCCC(CN(C)C)SC(C)=O (configuration not stated) | – | 100 | 100 | 10 | 80 | 80 | – | – | – | – |
| CN(C)CC1CS[S+]([O-])C1.O=C(O)C(=O)O (configuration not stated) | – | 100 | 100 | 70 | 100 | 0 | – | – | – | – |
| CN(C)C1CSSSC1.O=C(O)C(=O)O [THIOCYCLAM HYDROGEN OXALATE] | – | 80 | 100 | 20 | 100 | 100 | – | – | – | – |
| CC(C)NC(=O)SCC(CSC(=O)NC(C)C)CN(C)C | – | – | 100 | – | – | – | 0 | 100 | 60 | 20 |
| CN(C)C[C@H]1CS[C@](C#N)(c2ccc(Cl)cc2)SC1 | – | 70 | 100 | 0 | 100 | 100 | – | – | – | – |
| CN(C)CC(S)CCS.O=C(O)C(=O)O (configuration not stated) | – | 100 | 100 | 60 | 100 | 45 | – | – | – | – |
| CN(C)CC(CSS(=O)(=O)c1ccccc1)CSS(=O)(=O)c1ccccc1.O=C(O)C(=O)O | – | 100 | 100 | 80 | 100 | 0 | – | – | – | – |
